Experimental data from patent US20080015217A1, “ANTIOXIDANT COMBINATIONS FOR USE IN RUMINANT FEED RATIONS” (NOVUS INTERNATIONAL, INC., priority 2006, published 2008).

What was measured:
[1] = Active oxygen method (AOM), soybean oil; details: soybean oil subjected to oxidative stress, 500 ppm antioxidant, FIG. 1
[2] = Oil stability index (OSI) method, soybean oil; details: 500 ppm antioxidant, FIG. 1

For CCOc1ccc2c(c1)C(C)=CC(C)(C)N2 [ETX, 6-ethoxy-1,2-dihydro-2,2,4-trimethylquinoline], the peroxide values [1] was “about 11 meq” and the OSI induction time [2] was “about 6 hr”.
